Patent US5486532A, “Benzospiroalkenes” (Adir et Compagnie, priority 1993, dated 1996)
Counter-ions that a name gives are not always drawn. Like-named read-outs stand apart in the source and are kept apart here.

Assays:
[1] = test system: loss of righting reflex induced by xylazine in rats; test: Antagonism of the loss of righting reflex induced by xylazine in rats; type: in vivo, male Wistar rats; details: Rattus norvegicus, sc, 1 h, read-out: Antagonism of the loss of righting reflex induced by xylazine ED50
Method: (§1) Animals and environment The animals used are male Wistar rats (IFFA CREDO). They weigh between 200 and 250 g at the time of the experiment. The rats live in an animal house, in cages, four to a cage, with free access to food and drinking water, for one week before being studied. 24 hours before the experiment, the rats are deprived of food. The rats are transferred into the laboratory a few hours before the experiment. The animal house and the laboratory are climatically controlled at a temperature of 21 1° C. and a hygrometry of 55 5%. The lighting cycle is 12 h/12 h with the light switched on from 7.0 a.m. to 7.0 p.m. The rats are only experimented on once.
(§2) The compounds are injected subcutaneously into the rats which are placed in individual cages. 30 minutes after the injection the effect of these products on the fighting reflex is observed and a score is attributed. Immediately after, the rats receive an intraperitoneal injection of xylazine at a dose of 40 mg/kg. 30 minutes after the injection of xylazine (=60 minutes after the injection of the compounds to be tested), a new righting reflex score is attributed. In order to evaluate the righting reflex, the rats are placed gently on their backs and then released. A score of 0 is attributed to an immediate and complete righting, a score of 1 to a righting without recovery of a normal position, a score of 2 to a righting attempt but in which the rat remains stretched out on its back and a score of 3 to a complete loss of the reorienting reflex.
In order to evaluate the effect of the compounds tested on the loss of the fighting reflex induced by xylazine, a score of 2 or less is considered as an antagonistic effect. The percentage of animals which have a score of 2 or less is calculated per dose, as is the ED50 (=dose at which 50% of the animals show an antagonistic effect). The ED50 are calculated according to Litchfield and Wilcoxon.
(§3) The products are dissolved in distilled water, or distilled water with a few drops of lactic acid in the case of solubilization difficulties. The pH of the solutions is then brought to 5 using sodium hydroxide solution. All the products are administered in a volume of 10 ml/kg.

[2] = test system: loss of the righting reflex in rats; test: Test of loss of the righting reflex in rats, induction (agonistic effect); type: in vivo, male Wistar rats; details: for ED50: Rattus norvegicus, sc, 0.5 h, read-out: Induction of the loss of righting reflex ED50; for induction of a loss of the reorienting reflex (in words): rats
Method: as §1, §2
In order to evaluate the effect of the compounds tested on the loss of the righting reflex, a score of 1 or more is considered as an agonistic effect. The percentage of animals which have a score of 1 or more is calculated per dose, as is the ED50 (=dose at which 50% of the animals show an agonistic effect).
as §3

[3] = test system: synthetic activity of noradrenaline in rat hippocampus; test: Effect of α2-adrenergic ligands on the synthetic activity of noradrenaline in rat hippocampus (L-DOPA accumulation); type: in vivo, male Wistar rats; details: 60 minutes, n = 4
Method: 200-220 g male Wistar rats Iffa Credo, Illskischen, France) are individually installed in cages with free access to food and drinking water. The laboratory temperature is 21 1° C. and the percent humidity is 60 5%. The day/night cycle is 12 hours (light switched on in the morning at 7.30).
The effects of the molecules on the rate of regeneration of noradrenaline is determined 60 minutes after their administration via the subcutaneous route. […] The animals are then decapitated, their brain is removed and the hippocampus is dissected. The hippocampus is subsequently homogenized in 500 1 of 0.1M HClO4 containing 0.5% of Na2 S2 O5 and 0.5% of disodium EDTA and centrifuged at 15000 g for 15 minutes at 4° C. In order to measure the amounts of L-dihydroxyphenylalanine (L-DOPA), the precursor of noradrenaline, present, the supernatants are diluted 20 times in the chromatography mobile phase and 100 1 are analyzed by high performance liquid chromatography with electrochemical detection (Waters M460 detector, potential of the working electrode:850 mV). The column (Hypersil ODS 5 m, C18, 150 4.6 mm, Spectra Physics) is thermostatted at 25° C. […] The flow rate is 1 ml/min. The amounts of L-DOPA are determined relative to an external calibration and are compared with the amount of protein present in the hippocampi. The proteins are quantified according to the method of Smith et at. […] The average amount of L-DOPA analyzed in the animals treated by the solvent is considered as the control value (100%). The amounts analyzed in the animals treated by the molecules are then expressed as a percentage relative to this control value.
Statistics The data obtained for the control animals and the treated animals are compared with a variance analysis (ANOVA), followed by a Dunnett test. The significance limit is set at p<0.05. The data are expressed as a mean standard deviation.
Compounds The injection are made subcutaneously in a volume of 1.0 ml/kg. The substances are dissolved in sterile water with, if necessary, a few drops of lactic acid and then readjusted to a pH which is as close as possible to neutrality with sodium hydroxide. […] The doses are expressed relative to their weight of free base.

saphena veins = test: Contraction of isolated dog saphena veins; details: Canis lupus familiaris
Method: (§4) The technique used is based on that described by Fowler et al. (J. Pharmacol. Exp. Ther., 229, 712-718, 1984). Male or female mongrel dogs of approximately 15-25 kg were used as organ sources. The animals are anesthetized with pentobarbital (30 mg/kg intravenously). The legs are incized and the blood vessels removed. They are placed in Krebs-Ringer liquid (118 mM NaCl; 25 mM NaHCO3; 10 mM Glucose; 4.7 mM KCl; 1.25 mM CaCl2; 1.19 mM MgSO4; 1.14 mM KH2 PO4) at room temperature and under a sparge of carbogen (95% O2, 5% CO2). These blood vessels are then carefully freed of their fat and then cut into rings 2 mm wide and mounted under a base tension of 4 g (femoral arteries) or 1 g (saphena veins) in tanks thermostated at 37° C. containing Krebs-Ringer liquid and constantly sparged with carbogen. A lower hook constitutes the fixed point, whereas the upper hook is connected to an isometric force sensor. The variations in tension are digitized, stored on disk and processed by an information technology system. After mounting, the organs are left to rest for 90 minutes, with rinses being carried out every 30 min. After readjustment of the base tension, a contraction is induced by a single dose of KCl (100 mM). After stabilization, washing and returning to the base line, a contraction is provoqued by a single dose of phenylephrine (submaximal concentration) in order to regulate the following contractions. After washing and returning to the baseline, an effect/concentration curve is produced by addition of cumulative doses of agonist (the space between the doses is a semi-log). This experiment makes it possible to calculate the 50% effective concentration (EC50) in the following way: the tension values are first of all converted to percentages relative to the maximum effect induced by 100 mM of KCl. This EC50 is determined by non-linear regression by the SIMPLEX method (M. S. Caceci, Byte, 340-362, 1984), calculated according to the mass action law model of L. Michaelis and M. L. Menten (Biochem. Zeitschrift, 49, 333-369, 1913).
(§5) E=(Emax*C^n)(EC^n +C^n) with E=effect; Emax=maximum effect; C=concentration; EC=EC50; n=Hill number
(§6) The products of the invention contract dog arteries and veins. The maximum for these contractions approaches that obtained with KCl.

dog femoral arteries = test: Contraction of isolated dog femoral arteries; details: Canis lupus familiaris
Method: as §4, §5, §6

alpha2-adrenergic = test: Amyelated rats, alpha2-adrenergic component (C20 ratio with yohimbine); type: in vivo, Sprague Dawley rats; details: pretreated with yohimbine (1 mg/kg)
From the text: (§7) Male Sprague Dawley rats (300-400 g) are anesthetized with ether. The trachea is cannulated, the spinal column is destroyed using a stainless-steel rod and the animal is 1. 5 immediately placed under artificial respiration. The vagus nerves are dissected. The carotid arteries are ligatured and a catheter is placed in one and serves to record the arterial pressure. Three other catheters are placed in the jugular veins and in the vein of the penis and serve for the injections. The temperature of the animals is maintained at 36° C. The animal is pretreated by an injection of tertatolol […]. The animal is also pretreated 10 minutes later with prazosin ([…]) or yohimbine (1 mg/kg) when it is desired to determine the alpha1 - or alpha2-adrenergic properties of the product. Ten minutes later, increasing cumulative doses of product are injected every 20 seconds. The variations in arterial pressure are detected using a Statham P23XL pressure cell and are recorded. The pressure values are expressed in mmHg. This experiment makes it possible to calculate the concentration which increases the pressure by 20 mmHg (C20) by non-linear regression according to the mass action law model of Michaelis and Menten as described above. The maximum effect obtained is subsequently convened to a percentage relative to the maximum effect induced by phenylephrine. The alpha1 - or alpha2-adrenergic components of the product are evaluated using the C20 ratio obtained in the presence of prazosin or yohimbine on the values obtained in the absence of these antagonists. In amyelated rats, the products of the invention produce hypertensions which are sensitive to prazosin and to yohimbine.

[4] = test system: arterial pressure in amyelated rats; test: In vivo study in amyelated rats, arterial pressure; design: species or system Sprague Dawley rats; details: Rattus norvegicus, iv, tertatolol pretreated, no prazosin or yohimbine, read-out: C20 Control (concentration which increases the pressure by 20 mmHg)
From the text: as §7

alpha1-adrenergic = test: Amyelated rats, alpha1-adrenergic component (C20 ratio with prazosin); type: in vivo, Sprague Dawley rats; details: pretreated with prazosin
From the text: as §7

[5] = s.c., 60 minutes after injection, xylazine 40 mg/kg i.p., score of 2 or less
[6] = s.c., 30 minutes after injection, score of 1 or more
[7] = 30 minutes after xylazine 40 mg/kg i.p., distilled water pretreatment, N=10

For Brc1c(NC2=NCCN2)ccc2nccnc12 [UK 14,304, reference compound], the ED50 [1] was > 10 mg/kg, the ED50 [2] was 0.24 mg/kg and the “induction of a loss of the reorienting reflex (in words)” value (from here on “induction of a loss … (in words)”) [2] was “behave as agonists by inducing a loss of the reorienting reflex”. The “Accumulation of L-DOPA” value ([3]; dose 0.01 mg/kg s.c.) was 98 ± 13 Control percentages, the “Accumulation of L-DOPA” value ([3]; dose 0.04 mg/kg s.c.) was 70 ± 2 Control percentages and the “Accumulation of L-DOPA” value ([3]; dose 0.16 mg/kg s.c.) was 40 ± 3 Control percentages. The “Accumulation of L-DOPA” value ([3]; dose 0.63 mg/kg s.c.) was 48 ± 7 Control percentages.

COc1cccc2c1CC1(CC2)CNC=N1 (stereo not shown) [Example 3, Spiro[(1,3-diazacyclopent-1-ene)-5:2'-(8'-methoxy-1',2',3', 4'-tetrahydronaphthalene)]fumarate] showed an EC50 (saphena veins; dog saphena vein rings, cumulative doses) of 400 nM, an Emax (saphena veins; maximum contraction relative to 100 mM KCl, dog saphena vein, read-out: VEIN Max) of 100% and an EC50 (dog femoral arteries; dog femoral artery rings, cumulative doses) of 3000 nM. It also gave an Emax (dog femoral arteries; maximum contraction relative to 100 mM KCl, dog femoral artery, read-out: ARTERY Max) of 94%.

NC1=NC2(CCc3cccc(Cl)c3C2)CO1 (single isomer, unassigned) [Example 13, Spiro[(1-oxa-2-amino-3-azacyclopent-2-ene)-4:2'-(8'-chloro-1',2', 3',4'-tetrahydronaphthalene)]hydrochloride, βisomer] was tested, and the ED50 [1, 5] was > 0.63 mg/kg, the ED50 [2, 6] was 0.15 mg/kg and the “induction of a loss … (in words)” value [2] was “behave as agonists by inducing a loss of the reorienting reflex”.

Oc1cccc2c1CC1(CC2)CNC=N1 (stereo not shown) [Example 5, Spiro[(1,3-diazacyclopent-1-ene)-5:2'-(8'-hydroxy-1',2',3', 4'-tetrahydronaphthalene)]fumarate] was tested, and the “Ratio treated C20 / control C20, Yohimbine” value (alpha2-adrenergic) was 12.0, the ED (20 mmHg) [4] was 0.0048 mg/kg and the “Ratio treated C20 / control C20, Prazosin” value (alpha1-adrenergic) was 0.9.

With c1ccc2c(c1)OCC(C1=NCCN1)O2 (stereo not shown) [IDAZOXAN, idazoxan] the ED50 [1, 5] was 0.24 mg/kg, the ED50 [2, 6] was > 10 mg/kg and the “induction of a loss … (in words)” value [2] was “inactiv”.

Cc1cccc(C)c1N=C1NCCCS1 [XYLAZINE, xylazine] was tested, and the “control rats that had lost the righting reflex (in words)” value [2, 7] was “all the control rats (N=10) had lost the fighting reflex”, the “righting reflex score, mean±SD” value [2, 7] was 3±0 and the ED50 [2] was 6.1 mg/kg. The “induction of a loss … (in words)” value [2] was “behave as agonists by inducing a loss of the reorienting reflex”.

Cc1ccc2c(c1C)CC1(CC2)COC(N)=N1 (stereo not shown) [Example 11, Spiro[(1-oxa-2-amino-3-azacyciopent-2-ene)-4:2'-(7-8'-dimethyl-1', 2',3',4'-tetrahydronaphthalene)]hydrochloride] was tested, and the ED50 [1, 5] was > 2.5 mg/kg, the ED50 [2, 6] was 1.14 mg/kg and the “induction of a loss … (in words)” value [2] was “behave as agonists by inducing a loss of the reorienting reflex”.

NC1=NC2(CCc3cccc(Cl)c3C2)CO1 (stereo not shown) [Example 9, Spiro[(1-oxa-2-amino-3-azacyclopent-2-ene)-4:2'-(8'-chloro-1', 2',3',4'-tetrahydronaphthalene)]hydrochloride] was tested, and the ED50 [1, 5] was > 0.63 mg/kg, the ED50 [2, 6] was 0.17 mg/kg and the “induction of a loss … (in words)” value [2] was “behave as agonists by inducing a loss of the reorienting reflex”. The “Accumulation of L-DOPA” value ([3]; dose 0.01 mg/kg s.c.) was 51 ± 7 Control percentages, the “Accumulation of L-DOPA” value ([3]; dose 0.04 mg/kg s.c.) was 50 ± 7 Control percentages and the “Accumulation of L-DOPA” value ([3]; dose 0.16 mg/kg s.c.) was 44 ± 2 Control percentages. For the same compound, the “Accumulation of L-DOPA” value ([3]; dose 0.63 mg/kg s.c.) was 34 ± 2 Control percentages.
